Here are results for 17 compounds from US12516051B1, “Small molecule degraders and fluorescent probes of PXR” (St. Jude Children's Research Hospital, Inc., priority 2024, dated 2026).

Where two headings read alike, the source gives them in different places.

The data set has as its system SNU-C4 HiBiT-PXR KI cells. Put plainly: Cytotoxicity, CellTiter-Glo Luminescent Cell Viability Assay. In kind it is cell-based. Here is the method: An Echo 655T Acoustic Liquid Handler was used to dispense 75 nL/well of DMSO or PROTAC dilution into white tissue culture-treated 384-well plates. For 24 h cytotoxicity, 25 μL assay media containing 1×10^4 cells was added to each well to match the conditions for the degradation assays. For 72 h cytotoxicity, 25 μL RPMI with 10% FBS containing 2.5×10^3 cells was added to each well to match normal growth conditions. […] After 24 h or 72 h, the CellTiter-Glo Luminescent Cell Viability Assay (Promega, cat. #G7572) and an EnVision microplate reader were used to assess cytotoxicity. DMSO wells with cells served as positive controls, and wells without cells served as negative controls. The percent cell viability for each well was calculated using equation 5,

Setting [1] is: read-out: 24 h CC50, Table 2, 24 h treatment.
The mark [2] stands for this setting: read-out: 72 h CC50, Table 2, 72 h treatment.
The mark [3] stands for this setting: read-out: 24 h CC50, Table 3, 24 h treatment.
Where [4] appears, read: read-out: 72 h CC50, Table 3, 72 h treatment.

Take `COc1ccc(OC)c(-n2nnc(C(=O)Nc3cc(OCCCCCCOCCOCC(=O)N[C@H](C(=O)N4C[C@H](O)C[C@H]4C(=O)NCc4ccc(-c5scnc5C)cc4)C(C)(C)C)cc(C(C)(C)C)c3)c2C)c1` [Compound 15, N-(3-(TERT-BUTYL)-5-((6-(2-(2-(((S)-1-((2S,4R)-4-HYDROXY-2-((4-(4-METHYLTHIAZOL-5 YL)BENZYL)CARBAMOYL)PYRROLIDIN-1-YL)-3,3-DIMETHYL-1-OXOBUTAN-2-YL)AMINO)-2-OXOETHOXY)ETHOXY)HEXYL)OXY)PHENYL)-1-(2,5-DIMETHOXYPHENYL)-5-METHYL-1H-1,2,3-TRIAZOLE-4-CARBOXAMIDE]: the CC50 is greater than 30 µM under setting [1] and greater than 30 µM under setting [2].

Take `CCC[C@H](CC)Oc1ccc(C(=O)N[C@H](C(=O)N2C[C@H](O)C[C@H]2C(=O)NCc2ccc(-c3scnc3C)cc2)C(C)(C)C)cc1NC(=O)c1nnn(-c2cc(OC)ccc2OC)c1C` [Compound 16]: the cytotoxic concentration (CC50) was greater than 30 µM under setting [1] and greater than 30 µM under setting [2].

On to `CCC[C@H](CC)Oc1ccc(C(=O)NCCCCC(=O)N[C@H](C(=O)N2C[C@H](O)C[C@H]2C(=O)NCc2ccc(-c3scnc3C)cc2)C(C)(C)C)cc1NC(=O)c1nnn(-c2cc(OC)ccc2OC)c1C` [Compound 17], for which the CC50 under setting [1] is greater than 30 µM and the half-maximal cytotoxic concentration (CC50) under setting [2] was greater than 30 µM.

Regarding `CCC[C@H](CC)Oc1ccc(C(=O)NCCOCCOCC(=O)N[C@H](C(=O)N2C[C@H](O)C[C@H]2C(=O)NCc2ccc(-c3scnc3C)cc2)C(C)(C)C)cc1NC(=O)c1nnn(-c2cc(OC)ccc2OC)c1C` [Compound 18], the CC50 reads like this: under setting [1], greater than 30 µM; under setting [2], greater than 30 µM.

As for `CCC[C@H](CC)Oc1ccc(C(=O)NCCCCCCCCC(=O)N[C@H](C(=O)N2C[C@H](O)C[C@H]2C(=O)NCc2ccc(-c3scnc3C)cc2)C(C)(C)C)cc1NC(=O)c1nnn(-c2cc(OC)ccc2OC)c1C` [Compound 19], the CC50 was greater than 30 µM under setting [1] and greater than 30 µM under setting [2].

In the case of `CCC[C@H](CC)Oc1ccc(C(=O)NCCOCCOCCOCCOCC(=O)N[C@H](C(=O)N2C[C@H](O)C[C@H]2C(=O)NCc2ccc(-c3scnc3C)cc2)C(C)(C)C)cc1NC(=O)c1nnn(-c2cc(OC)ccc2OC)c1C` [Compound 21], the CC50 by setting is: under setting [1], greater than 30 µM; under setting [2], greater than 30 µM.

For `COc1cc(OCC(=O)N[C@H](C(=O)N2C[C@H](O)C[C@H]2C(=O)NCc2ccc(-c3scnc3C)cc2)C(C)(C)C)c(C)cc1-n1nnc(S(=O)(=O)c2ccc(C(C)(C)C)cc2)c1C` [Compound 22, (2S,4R)-1-((S)-2-(2-(4-(4-((4-(TERT-BUTYL)PHENYL)SULFONYL)-5-METHYL-1H-1,2,3-TRIAZOL-1-YL)-5-METHOXY-2-METHYLPHENOXY)ACETAMIDO)-3,3-DIMETHYLBUTANOYL)-4-HYDROXY-N-(4-(4-METHYLTHIAZOL-5 YL)BENZYL)PYRROLIDINE-2-CARBOXAMIDE], the CC50 is greater than 30 µM under setting [3] and greater than 30 µM under setting [4].

For the compound `COc1cc(OCCCC(=O)N[C@H](C(=O)N2C[C@H](O)C[C@H]2C(=O)NCc2ccc(-c3scnc3C)cc2)C(C)(C)C)c(C)cc1-n1nnc(S(=O)(=O)c2ccc(C(C)(C)C)cc2)c1C` [Compound 23, (2S,4R)-1-((S)-2-(4-(4-(4-((4-(TERT-BUTYL)PHENYL)SULFONYL)-5-METHYL-1H-1,2,3-TRIAZOL-1-YL)-5-METHOXY-2-METHYLPHENOXY)BUTANAMIDO)-3,3-DIMETHYLBUTANOYL)-4-HYDROXY-N-(4-(4-METHYLTHIAZOL-5-YL)BENZYL)PYRROLIDINE-2-CARBOXAMIDE], the CC50 by setting is: under setting [3], greater than 30 µM; under setting [4], greater than 30 µM.

Take `COc1cc(OCCOCCC(=O)N[C@H](C(=O)N2C[C@H](O)C[C@H]2C(=O)NCc2ccc(-c3scnc3C)cc2)C(C)(C)C)c(C)cc1-n1nnc(S(=O)(=O)c2ccc(C(C)(C)C)cc2)c1C` [Compound 24, (2S,4R)-1-((S)-2-(3-(2-(4-(4-((4-(TERT-BUTYL)PHENYL)SULFONYL)-5-METHYL-1H-1,2,3-TRIAZOL-1-YL)-5-METHOXY-2-METHYLPHENOXY)ETHOXY)PROPANAMIDO)-3,3-DIMETHYLBUTANOYL)-4-HYDROXY-N-(4-(4-METHYLTHIAZOL-5-YL)BENZYL)PYRROLIDINE-2-CARBOXAMIDE]: the CC50 was greater than 30 µM under setting [3] and greater than 30 µM under setting [4].

With `COc1cc(OCCCCCCCC(=O)N[C@H](C(=O)N2C[C@H](O)C[C@H]2C(=O)NCc2ccc(-c3scnc3C)cc2)C(C)(C)C)c(C)cc1-n1nnc(S(=O)(=O)c2ccc(C(C)(C)C)cc2)c1C` [Compound 25, (2S,4R)-1-((S)-2-(8-(4-(4-((4-(TERT-BUTYL)PHENYL)SULFONYL)-5-METHYL-1H-1,2,3-TRIAZOL-1-YL)-5-METHOXY-2-METHYLPHENOXY)OCTANAMIDO)-3,3-DIMETHYLBUTANOYL)-4-HYDROXY-N-(4-(4-METHYLTHIAZOL-5-YL)BENZYL)PYRROLIDINE-2-CARBOXAMIDE], the 50% cytotoxic concentration (CC50) runs as follows: under setting [3], greater than 30 µM; under setting [4], greater than 30 µM.

`COc1cc(OCCOCCOCCC(=O)N[C@H](C(=O)N2C[C@H](O)C[C@H]2C(=O)NCc2ccc(-c3scnc3C)cc2)C(C)(C)C)c(C)cc1-n1nnc(S(=O)(=O)c2ccc(C(C)(C)C)cc2)c1C` [Compound 26, (2S,4R)-1-((S)-2-(3-(2-(2-(4-(4-((4-(TERT-BUTYL)PHENYL)SULFONYL)-5-METHYL-1H-1,2,3-TRIAZOL-1-YL)-5-METHOXY-2-METHYLPHENOXY)ETHOXY)ETHOXY)PROPANAMIDO)-3,3-DIMETHYLBUTANOYL)-4-HYDROXY-N-(4-(4-METHYLTHIAZOL-5-YL)BENZYL)PYRROLIDINE-2-CARBOXAMIDE]: the CC50 is greater than 30 µM under setting [3] and greater than 30 µM under setting [4].

As for `COc1cc(OCCOCCOCCOCCC(=O)N[C@H](C(=O)N2C[C@H](O)C[C@H]2C(=O)NCc2ccc(-c3scnc3C)cc2)C(C)(C)C)c(C)cc1-n1nnc(S(=O)(=O)c2ccc(C(C)(C)C)cc2)c1C` [Compound 27, (2S,4R)-1-((S)-14-(TERT-BUTYL)-1-(4-(4-((4-(TERT-BUTYL)PHENYL)SULFONYL)-5-METHYL-1H-1,2,3-TRIAZOL-1-YL)-5-METHOXY-2-METHYLPHENOXY)-12-OXO-3,6,9-TRIOXA-13-AZAPENTADECAN-15-OYL)-4-HYDROXY-N-(4-(4-METHYLTHIAZOL-5-YL)BENZYL)PYRROLIDINE-2-CARBOXAMIDE], the CC50 is, setting by setting: under setting [3], greater than 30 µM; under setting [4], greater than 30 µM.

In the case of `COc1cc(OCCCCCCOCCOCC(=O)N[C@H](C(=O)N2C[C@H](O)C[C@H]2C(=O)NCc2ccc(-c3scnc3C)cc2)C(C)(C)C)c(C)cc1-n1nnc(S(=O)(=O)c2ccc(C(C)(C)C)cc2)c1C` [Compound 28, (2S,4R)-1-((S)-2-(2-(2-((6-(4-(4-((4-(TERT-BUTYL)PHENYL)SULFONYL)-5-METHYL-1H-1,2,3-TRIAZOL-1-YL)-5-METHOXY-2-METHYLPHENOXY)HEXYL)OXY)ETHOXY)ACETAMIDO)-3,3-DIMETHYLBUTANOYL)-4-HYDROXY-N-(4-(4-METHYLTHIAZOL-5-YL)BENZYL)PYRROLIDINE-2-CARBOXAMIDE], the half-maximal cytotoxic concentration (CC50) under setting [3] is greater than 30 µM and the CC50 under setting [4] is greater than 30 µM.

As for `COc1cc(OCCOCCOCCOCCOCCC(=O)N[C@H](C(=O)N2C[C@H](O)C[C@H]2C(=O)NCc2ccc(-c3scnc3C)cc2)C(C)(C)C)c(C)cc1-n1nnc(S(=O)(=O)c2ccc(C(C)(C)C)cc2)c1C` [Compound 29, (2S,4R)-1-((S)-17-(TERT-BUTYL)-1-(4-(4-((4-(TERT-BUTYL)PHENYL)SULFONYL)-5-METHYL-1H-1,2,3-TRIAZOL-1-YL)-5-METHOXY-2-METHYLPHENOXY)-15-OXO-3,6,9,12-TETRAOXA-16-AZAOCTADECAN-18-OYL)-4-HYDROXY-N-(4-(4-METHYLTHIAZOL-5-YL)BENZYL)PYRROLIDINE-2-CARBOXAMIDE], the CC50 under setting [3] is greater than 30 µM and the cytotoxic concentration (CC50) under setting [4] is greater than 30 µM.

As to `COc1cc(OCC(=O)NCCOCCOCCOCCOCC(=O)N[C@H](C(=O)N2C[C@H](O)C[C@H]2C(=O)NCc2ccc(-c3scnc3C)cc2)C(C)(C)C)c(C)cc1-n1nnc(S(=O)(=O)c2ccc(C(C)(C)C)cc2)c1C` [Compound 30, (2S,4R)-1-((S)-2-(TERT-BUTYL)-20-(4-(4-((4-(TERT-BUTYL)PHENYL)SULFONYL)-5-METHYL-1H-1,2,3-TRIAZOL-1-YL)-5-METHOXY-2-METHYLPHENOXY)-4,19-DIOXO-6,9,12,15-TETRAOXA-3,18-DIAZAICOSANOYL)-4-HYDROXY-N-(4-(4-METHYLTHIAZOL-5-YL)BENZYL)PYRROLIDINE-2-CARBOXAMIDE], the CC50 was greater than 30 µM under setting [3] and greater than 30 µM under setting [4].

In the case of `COc1cc(OCCOCCOCCOCCOCCOCCC(=O)N[C@H](C(=O)N2C[C@H](O)C[C@H]2C(=O)NCc2ccc(-c3scnc3C)cc2)C(C)(C)C)c(C)cc1-n1nnc(S(=O)(=O)c2ccc(C(C)(C)C)cc2)c1C` [Compound 31, (2S,4R)-1-((S)-20-(TERT-BUTYL)-1-(4-(4-((4-(TERT-BUTYL)PHENYL)SULFONYL)-5-METHYL-1H-1,2,3-TRIAZOL-1-YL)-5-METHOXY-2-METHYLPHENOXY)-18-OXO-3,6,9,12,15-PENTAOXA-19-AZAHENICOSAN-21-OYL)-4-HYDROXY-N-(4-(4-METHYLTHIAZOL-5-YL)BENZYL)PYRROLIDINE-2-CARBOXAMIDE], the CC50 by setting is: under setting [3], greater than 30 µM; under setting [4], greater than 30 µM.

As to `COc1cc(OCCCCCCOCCCCCOCCCCCC(=O)N[C@H](C(=O)N2C[C@H](O)C[C@H]2C(=O)NCc2ccc(-c3scnc3C)cc2)C(C)(C)C)c(C)cc1-n1nnc(S(=O)(=O)c2ccc(C(C)(C)C)cc2)c1C` [Compound 32, (2S,4R)-1-((S)-2-(6-((5-((6-(4-(4-((4-(tert-Butyl)phenyl)sulfonyl)-5-methyl-1H-1,2,3-triazol-1-yl)-5-methoxy-2-methylphenoxy)hexyl)oxy)pentyl)oxy)hexanamido)-3,3-dimethylbutanoyl)-4-hydroxy-N-(4-(4-methylthiazol-5-yl)benzyl)pyrrolidine-2-carboxamide], the CC50 reads like this: under setting [3], greater than 30 µM; under setting [4], greater than 30 µM.
